Assay results published in US11529337B2, “Method of treating pain” (VERTEX PHARMACEUTICALS INCORPORATED, priority 2018, dated 2022).

Experiments:
[1] = system: subjects with pain following bunionectomy; assay: Randomized, double-blind, placebo-controlled study of efficacy in subjects with pain following bunionectomy (Example 3); type: in vivo, human
Description: A randomized, double-blind, placebo-controlled, 3-arm, parallel-design study to evaluate the effect of Compound 1 on acute surgical pain was conducted. Bunionectomy is a well-established, multi-dose, surgical, acute pain model. A randomized, double-blind study design was selected to avoid observer bias and reduce symptoms or outcomes arising from the subjects' knowledge of treatment. A parallel design was considered most appropriate given the acute nature of bunionectomy surgery.
Male and female patients between the ages of 18 and 65 years (inclusive) with pain that is ≥4 on an 11-point Numeric Pain Rating Scale (NPRS) and is moderate or severe on the Verbal Categorical Rating Scale (VRS) after bunionectomy.
Investigational Drug: Compound 1. The investigational drug was administered orally in 250 mg capsules, prepared as described in Example 2. The investigational drug was administered every 12 hours (q12 h). […]
On the 11-point NPRS, a score of 0 denoted no pain, and a score of 10 denoted the worst pain intensity imaginable. […] Pain intensity also was recorded on the NPRS immediately before each administration of rescue medication. Pain intensity scores that were collected within 4 hours after a dose of rescue medication were taken as missing, and the missing values were imputed as the intensity recorded immediately before the administration of rescue medication. […]

[2] = system: patients with chronic pain caused by small fiber neuropathy; assay: Randomized, double-blind, placebo-controlled 6-week study in patients with chronic pain caused by small fiber neuropathy (Example 5); type: in vivo, human
Description: A randomized, double-blind, placebo-controlled, 6-week study that evaluated treatment with Compound 1 (Treatment Arm) or placebo (Placebo Arm) in patients with chronic pain caused by small fiber neuropathy was conducted.
Males and females between the ages of 18 and 80 years, inclusive, with small fiber neuropathy.
Compound 1 was administered orally in 250 mg capsules, prepared as described in Example 2.
The study included a 7-day run-in period, followed a 6-week treatment period. The subjects were randomized to a Placebo Arm (43 subjects) and a Treatment Arm (46 subjects) between the run-in period and the treatment period.
During the run-in period, subjects reported their average pain and sleep interference to establish a baseline NRS pain score and DSIS score.
During the treatment period, Compound 1 was administered to the subjects in the Treatment Arm every 24 hours (q24 h) in a dose of 1250 mg. Subjects in the Placebo Arm received placebo capsules.
11-point Numeric Rating Scale (NRS). Pain intensity was evaluated using an 11-point NRS. The 11-point scale ranged from 0 (no pain) to 10 (worst imaginable pain). From Day −7 through Week 6, subjects reported their average daily pain during the last 24 hours on the NRS via electronic diary.
Daily Sleep Interference Scale (DSIS). Subjects reported pain interference with sleep using an 11-point scale ranging from 0 (none) to 10 (severe). […]

[3] = system: subjects with pain following bunionectomy; assay: Safety and tolerability evaluations in the bunionectomy study (Example 3)
Description: Safety evaluations included adverse events, clinical laboratory assessments, clinical evaluation of vital signs, electrocardiograms, and physical examinations.

Structure (SMILES): Cc1cc(F)ccc1Oc1cc(C(F)(F)F)ccc1C(=O)Nc1ccn(COP(=O)(O)O)c(=O)c1 [Compound 1, (4-(2-(4-fluoro-2-methylphenoxy)-4-(trifluoromethyl)benzamido)-2-oxopyridin-1(2H)-yl)methyl dihydrogen phosphate]
- Relief of acute pain compared to placebo (SPID24), in words ([1]; Investigational Arm versus placebo): statistically significant relief of acute pain compared to placebo
- Subjects who discontinued due to lack of efficacy ([1]; number (percentage) of subjects assigned to the arm): 6 (7.5%)
- Subjects with ≥30% reduction in weekly average of daily pain intensity on NRS ([2]; Week 6, total = subjects with data at Week 6): 45.0% (18/40)
- Treatment difference in NRS pain intensity versus placebo at Week 1 ([2]; observed as early as Week 1): greater than 1 point
- Tolerability, in words ([3]; bunionectomy study): generally well tolerated
- Gastrointestinal adverse events ([3]; share of subjects in the arm): 13%
